Measurements published in patent publication US8652483B2, “Viral infection enhancing peptide” (priority 2010, dated 2014).
Values joined by “and” are separate entries in the source; they are usually repeats but may differ in a detail not shown here. Equal entries are not always repeated. No end group written: not given here.

Columns and labels:
[1] = tested on: R5 HIV-1 (CCR5 tropic HIV-1 NL4-3 92TH014-2); test: HIV-1 infection of TZM-bl cells, R5 virus; type: cell-based; conditions: for enhancement of HIV infection: 1 ng p24 virus, 100 μg/ml peptide; for enhancers of HIV infection at the lowest viral dose: 0.01 ng p24 virus
[2] = Thioflavin T (ThT) fluorescence; type: physicochemical; conditions: DMSO stock freshly diluted in PBS
Method: (§1) To investigate if SW1010 (like PAP248-286) forms insoluble aggregates, in particular amyloid like material, the reactivity of a freshly prepared SW1010 peptide solution to the amyloid specific dye Thioflavin T (ThT) was analyzed. […] Further evidence that SW1010 forms amyloid like material was derived by staining with another amyloid specific dye, Congo Red (CR) (Münch et al., 2007). […] Thus, when used to enhance retroviral infection or transduction efficiencies (FIG. 1 F), the peptide of the invention provides an important advantage over SEVI amyloid fibrils that have to be generated by agitating the monomeric PAP248-286 by several hours or days on a table rotator (Münch et al., 2007; Wurm et al., 2009).
(§2) Similarly, all SW1010 derivatives were analyzed for ThT and CR reactivity.

[3] = Congo Red (CR) staining assay; type: physicochemical; conditions: DMSO stock freshly diluted in PBS
Method: as §1, §2
To test if SWB is soluble in solvents other than DMSO and can form virus enhancing amyloid like material upon diluting in PBS, the inventors resuspended SWB powder in various solvents. […] Since acetic acid stocks were highly toxic for cell culture at higher concentrations, all following SWB stock solutions were then prepared by dissolving the peptide in less cytotoxic DMSO. In all subsequent experiments the concentrations of DMSO in the presence of virus or cells were lower than 1%, preferably between about 0.2 and about 1%.

[4] = tested on: primary peripheral blood mononuclear cells (PBMC); test: Cytotoxicity of SWB; type: cell-based
Jurkat T cells = test: Cytotoxicity of SWB; type: cell-based
KG-1 cells = test: Cytotoxicity of SWB; type: cell-based, human
CEM-M7 cells = test: Cytotoxicity of SWB; type: cell-based
Solubility limit in DMSO = type: physicochemical; conditions: read-out: solubility limit in DMSO (concentrations above were not completely dissolved)

| Substance | enhancement of HIV infection [1] | ThT fluorescence [2] | Congo Red (CR) staining [3] | enhancers of HIV infection at the lowest viral dose [1] | further results |
| --- | --- | --- | --- | --- | --- |
| SW1014: N-terminal half of SW1010 (QIINMWQEVG; SW-peptide derived from peptide gp120 of HIV-1 strain MN (Gurgo et al., 1988)) | weak or no effects | increases fluorescence intensities | specific staining |  |  |
| SWC: variant of SW1010 of different length (KIKQIINMWQ; SW-peptide derived from peptide gp120 of HIV-1 strain MN (Gurgo et al., 1988)) |  |  | specific staining | most potent enhancers |  |
| SWNL43: peptide corresponding to SW1010 of the HIV-1 clone NL4-3 (TITLPCRIKQFINMWQEVG; SW-peptide derived from peptide gp120 of HIV-1 strain MN (Gurgo et al., 1988)) | weak or no effects |  | did react with CR to a lesser extend |  |  |
| SWE: variant of SW1010 of different length (QCKIKQIINMW; SW-peptide derived from peptide gp120 of HIV-1 strain MN (Gurgo et al., 1988)) |  | increases fluorescence intensities | specific staining | most potent enhancers |  |
| QCKIKQIINMWQ [SWB] |  |  |  |  | toxic effects [4]: no toxic effects; toxic effects (Jurkat T cells): no toxic effects; toxic effects (KG-1 cells): no toxic effects; toxic effects (CEM-M7 cells): no toxic effects; solubility (Solubility limit in DMSO): 25000 µM and 38000 µg/mL |
| SWCON: peptide derived from a SW1010 homologous consensus sequence of all HIV-1 M strains (TITLPCRIKQIINMWQGVG; SW-peptide derived from peptide gp120 of HIV-1 strain MN (Gurgo et al., 1988)) |  | increases fluorescence intensities | specific staining | most potent enhancers |  |
